Common to all, as to assay type: cell-based
Test [1] deals with Escherichia coli NIHJ (JC-2). The test can be described thus: Minimal inhibitory concentration (agar). To be noted: 48 h, pH 7, nutrient agar, pH 7.0, 2 days, 37° C. As to the method: (§1) Medium N nutrient agar (pH 7.0, 2 days, 37° C.)
(§2) MIC Minimal inhibitory concentration
(§3) N nutrient agar (pH 7.0, 2 days, 37° C.)

Another test deals with Trichophyton purpureum. The test can be described thus: Minimal inhibitory concentration (agar). To be noted: 96 h, pH 6.4, potato agar, pH 6.4, 4 days, 27° C., read-out: MIC.
Another test concerns fungi. The test can be described thus: Antifungal activity (in words).
Another test concerns Trichophyton pedis 804. The test can be described thus: Minimal inhibitory concentration (agar). To be noted: Trichophyton pedis, 804, 96 h, pH 6.4, potato agar, pH 6.4, 4 days, 27° C.; read-out: MIC.
Test [2] relates to Aspergillus fumigatus IAM 2612. Description: Minimal inhibitory concentration (agar). To be noted: IAM2612, 96 h, potato agar, pH 6.4, 4 days, 27° C. The procedure: P potato agar (pH 6.4, 4 days, 27° C.)
as §2

The next test relates to Mycobacterium smegmatis. Description: Minimal inhibitory concentration (agar). The following applies: Mycolicibacterium smegmatis, 48 h; nutrient agar, pH 7.0, 2 days, 37° C. The procedure:
as §1, §2

For the next test, the system named is Pseudomonas aeruginosa. Description: Minimal inhibitory concentration (agar). The following applies: 48 h, nutrient agar, pH 7.0, 2 days, 37° C. As to the method:
as §1, §2, §3

In a further test the test system is Shigella flexneri. Description: Minimal inhibitory concentration (agar). To be noted: 48 h, nutrient agar, pH 7.0, 2 days, 37° C. As to the method: as §1, §2, §3
A further test deals with Escherichia coli NIHJ. The test can be described thus: Minimal inhibitory concentration (agar). To be noted: 48 h, nutrient agar, pH 7.0, 2 days, 37° C.
For test [3], the system named is fungi belonging to the genus Trichophyton. Description: Growth inhibition (text summary of Table 1). To be noted: 96 h, some fungi of the genus, read-out: concentration at which growth is inhibited. The procedure:
| P potato agar (pH 6.4, 4 days, 27° C.)

For test [4], the system named is Klebsiella pneumoniae PCI 602. Description: Minimal inhibitory concentration (agar). The following applies: PCI602, 48 h, nutrient agar, pH 7.0, 2 days, 37° C.
The subject of test [5] is Acholeplasma laidlawii (B) Bml. The test can be described thus: Minimal inhibitory concentration (PPLO agar). To be noted: 192 h, pH 7.8, 8 days, 37° C. As to the method: (§4) H Hokken PPLO agar (pH 7.8, 8 days, 37° C.)
(§5) E Eiken PPLO agar (pH 7.8, 8 days, 37° C.)
as §2

The subject of test [6] is Mycoplasma gallisepticum KP-13. The test can be described thus: Minimal inhibitory concentration (PPLO agar). To be noted: Mycoplasmoides gallisepticum, KP13, 192 h, pH 7.8, 8 days, 37° C. The procedure: as §4, §5, §2
For test [7], the system named is Mycoplasma gallisepticum S-6. Description: Minimal inhibitory concentration (PPLO agar). To be noted: Mycoplasmoides gallisepticum, S6, 192 h, pH 7.8, 8 days, 37° C. The procedure: as §4, §5, §2
In test [8] the test system is Acholeplasma laidlawii (A) PG8. Description: Minimal inhibitory concentration (PPLO agar). To be noted: pH 7.8, 8 days, 37° C. The procedure:
as §4, §5, §2

Test [9] has as its system Mycoplasma gallisepticum 333P (Spiramycin resistant). The test can be described thus: Minimal inhibitory concentration (PPLO agar). As to the method: as §4, §5, §2
In a further test the test system is Mycoplasma gallinarum. Description: Minimal inhibitory concentration (PPLO agar). To be noted: Mycoplasmopsis gallinarum, 192 h, Hokken PPLO agar, pH 7.8, 8 days, 37° C. As to the method: as §4, §2, §5
The next test concerns Mycoplasma iners. The test can be described thus: Minimal inhibitory concentration (PPLO agar). The following applies: Mycoplasmopsis iners, 192 h; Hokken PPLO agar, pH 7.8, 8 days, 37° C. As to the method:
as §4, §2, §5

Molecules are shown by their SMILES. Converted amounts (≈) assume the structure as drawn. Where two headings read alike, the source gives them in different places. A value given as a limit tells only on which side of the number the result lay.

On to `CC(=O)Oc1cccc2c1C(=O)C1=C(CC(CC(=O)O)OC1C)C2=O` (stereo not drawn) [Acetylnanaomycin A, acetylnanaomycin A], for which the MIC is over 100 µg/mL in [1], 1.6 µg/mL (≈ 4.65 µM) in the test on Trichophyton purpureum and 0.8 µg/mL (≈ 2.32 µM) in the test with Trichophyton pedis 804. Moreover, the activity against fungi result in the test with fungi was “as strong activity against fungi and mycoplasmas as nanaomycin A”.
`CC1OC(CC(=O)O)CC2=C1C(=O)c1c(O)cccc1C2=O` (stereo not drawn) [Nanaomycin A, nanaomycin A]: the MIC was 12.5 µg/mL (≈ 41.4 µM) in [2]; 62.5 µg/mL (≈ 207 µM) against Mycobacterium smegmatis; 500 µg/mL (≈ 1650 µM) against Pseudomonas aeruginosa; 31.3 µg/mL (≈ 104 µM) against Shigella flexneri; 31.3 µg/mL (≈ 104 µM) against Escherichia coli NIHJ; at most 3.1 µg/mL in test [3]. In addition, the MIC in [4] was 31.3 µg/mL (≈ 104 µM); in test [5] (pH 7.8, Eiken PPLO agar), over 25 µg/mL; in test [5] (pH 7.8, Hokken PPLO agar), 25 µg/mL (≈ 82.7 µM); in test [6] (pH 7.8, Eiken PPLO agar), 0.05 µg/mL (≈ 0.165 µM); in test [6] (pH 7.8, Hokken PPLO agar), under 0.013 µg/mL; in test [7] (pH 7.8, Hokken PPLO agar) it was under 0.013 µg/mL. Moreover, the MIC is 0.1 µg/mL (≈ 0.331 µM) in test [7] (Eiken PPLO agar, read-out: MIC); over 25 µg/mL in test [8] (Acholeplasma laidlawii, 192 h, Hokken PPLO agar, read-out: MIC); over 25 µg/mL in test [8] (Eiken PPLO agar); under 0.013 µg/mL in [9] (Eiken PPLO agar, pH 7.8, 8 days, 37° C.); under 0.013 µg/mL in test [9] (Mycoplasmoides gallisepticum, 192 h, pH 7.8); 1.56 µg/mL (≈ 5.16 µM) in the test on Mycoplasma gallinarum. Also, the MIC against Mycoplasma iners was determined as 3.12 µg/mL (≈ 10.3 µM). In addition, in test [9] (in words), the “activity against spiramycin-resistant Mycoplasma gallisepticum” value is listed as “strong activity”.
